Legend:
[1] = system: SK-OV-3; assay: cells; type: functional; details: Homo sapiens, time 72 hrs
[2] = system: 4T1; assay: cells; type: functional; details: Mus musculus, time 72 hrs
[3] = system: HCT-116; assay: cells; type: functional; details: Homo sapiens, time 72 hrs
[4] = system: B16-F10; assay: cells; type: functional; details: Mus musculus, time 72 hrs
[5] = system: K562; assay: cells; type: functional; details: Homo sapiens, time 72 hrs
[6] = system: 4T1; assay: Antiproliferative activity against mouse 4T1 cells incubated for 72 hrs by MTT assay; type: functional, cell-based; details: 4T1, 72 h
[7] = system: SK-OV-3; assay: Antiproliferative activity against human SK-OV-3 cells incubated for 72 hrs by MTT assay; type: functional, cell-based; details: SK-OV-3, 72 h
[8] = system: HCT-116; assay: Antiproliferative activity against human HCT-116 cells incubated for 72 hrs by MTT assay; type: functional, cell-based; details: HCT-116, 72 h
[9] = system: B16-F10; assay: Antiproliferative activity against mouse B16-F10 cells incubated for 72 hrs by MTT assay; type: functional, cell-based; details: B16-F10, 72 h
[10] = system: K562; assay: Antiproliferative activity against human K562 cells incubated for 72 hrs by CCK8 assay; type: functional, cell-based; details: K562, 72 h
[11] = Antiproliferative activity against human HK-2 cells incubated for 72 hrs by MTT assay
[12] = target: Histone deacetylase 1 (Homo sapiens, UniProt Q13547); assay: Inhibition of HDAC1 (unknown origin)
[13] = target: Histone deacetylase 3 (Homo sapiens, UniProt O15379); assay: Inhibition of HDAC3 (unknown origin)
[14] = target: T1, Protein deacetylase HDAC6 (Homo sapiens, UniProt Q9UBN7); assay: Inhibition of HDAC6 (unknown origin)
T1 sequence (Q9UBN7 whole entry): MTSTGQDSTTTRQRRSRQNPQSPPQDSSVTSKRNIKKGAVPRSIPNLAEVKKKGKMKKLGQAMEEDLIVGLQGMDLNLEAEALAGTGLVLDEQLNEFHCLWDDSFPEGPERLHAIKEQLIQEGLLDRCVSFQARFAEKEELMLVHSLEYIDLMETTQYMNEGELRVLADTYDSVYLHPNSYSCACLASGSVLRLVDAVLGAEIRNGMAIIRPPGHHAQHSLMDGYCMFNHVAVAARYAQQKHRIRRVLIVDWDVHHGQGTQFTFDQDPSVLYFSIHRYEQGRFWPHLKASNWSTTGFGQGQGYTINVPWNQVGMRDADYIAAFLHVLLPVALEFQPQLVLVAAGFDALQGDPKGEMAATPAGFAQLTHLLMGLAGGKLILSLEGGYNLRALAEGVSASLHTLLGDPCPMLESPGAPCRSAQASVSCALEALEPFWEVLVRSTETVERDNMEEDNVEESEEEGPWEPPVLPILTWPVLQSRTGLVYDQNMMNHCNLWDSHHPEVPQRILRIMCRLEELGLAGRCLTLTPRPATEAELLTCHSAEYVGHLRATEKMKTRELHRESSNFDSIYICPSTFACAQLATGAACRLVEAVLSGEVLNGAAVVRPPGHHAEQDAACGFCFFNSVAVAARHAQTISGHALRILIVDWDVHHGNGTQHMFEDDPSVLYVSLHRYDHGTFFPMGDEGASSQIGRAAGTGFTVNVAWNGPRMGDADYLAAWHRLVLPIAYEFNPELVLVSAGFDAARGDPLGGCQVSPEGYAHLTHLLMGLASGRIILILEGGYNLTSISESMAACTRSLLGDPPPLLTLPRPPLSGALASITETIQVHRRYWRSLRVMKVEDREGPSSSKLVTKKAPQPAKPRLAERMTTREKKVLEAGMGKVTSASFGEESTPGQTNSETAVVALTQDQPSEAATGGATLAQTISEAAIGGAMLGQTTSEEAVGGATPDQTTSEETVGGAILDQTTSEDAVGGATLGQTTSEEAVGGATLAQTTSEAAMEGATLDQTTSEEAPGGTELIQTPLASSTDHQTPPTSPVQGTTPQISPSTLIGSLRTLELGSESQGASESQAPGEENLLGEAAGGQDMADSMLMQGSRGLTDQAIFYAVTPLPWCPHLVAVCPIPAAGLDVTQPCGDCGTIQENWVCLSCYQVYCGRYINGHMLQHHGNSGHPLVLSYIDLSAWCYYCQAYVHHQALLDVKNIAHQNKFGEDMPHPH

[15] = target: T2, Histone deacetylase 8 (Homo sapiens, UniProt Q9BY41); assay: Inhibition of HDAC8 (unknown origin)
T2 sequence (Q9BY41 whole entry): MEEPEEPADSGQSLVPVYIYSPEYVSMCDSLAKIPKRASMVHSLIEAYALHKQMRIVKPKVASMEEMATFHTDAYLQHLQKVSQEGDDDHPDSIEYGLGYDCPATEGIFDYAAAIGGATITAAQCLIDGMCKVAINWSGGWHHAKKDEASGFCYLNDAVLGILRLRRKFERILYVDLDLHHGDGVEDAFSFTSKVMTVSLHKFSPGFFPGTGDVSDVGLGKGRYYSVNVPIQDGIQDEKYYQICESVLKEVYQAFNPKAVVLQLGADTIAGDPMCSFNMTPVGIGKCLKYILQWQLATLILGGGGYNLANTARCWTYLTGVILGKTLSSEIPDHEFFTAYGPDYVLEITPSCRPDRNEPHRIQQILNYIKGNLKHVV

Chain of Histone deacetylase 3 (O15379 whole entry): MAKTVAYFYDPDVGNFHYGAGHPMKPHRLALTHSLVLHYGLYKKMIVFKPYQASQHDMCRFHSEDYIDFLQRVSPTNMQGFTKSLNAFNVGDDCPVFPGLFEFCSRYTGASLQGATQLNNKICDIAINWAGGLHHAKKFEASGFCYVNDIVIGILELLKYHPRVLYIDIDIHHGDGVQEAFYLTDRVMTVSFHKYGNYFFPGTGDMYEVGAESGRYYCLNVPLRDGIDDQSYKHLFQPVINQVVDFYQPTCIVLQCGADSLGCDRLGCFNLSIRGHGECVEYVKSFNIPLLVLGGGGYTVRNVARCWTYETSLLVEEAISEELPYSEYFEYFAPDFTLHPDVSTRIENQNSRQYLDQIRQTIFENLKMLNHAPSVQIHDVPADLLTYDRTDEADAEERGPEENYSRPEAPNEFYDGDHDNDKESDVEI
Chain of Histone deacetylase 1 (Q13547 whole entry): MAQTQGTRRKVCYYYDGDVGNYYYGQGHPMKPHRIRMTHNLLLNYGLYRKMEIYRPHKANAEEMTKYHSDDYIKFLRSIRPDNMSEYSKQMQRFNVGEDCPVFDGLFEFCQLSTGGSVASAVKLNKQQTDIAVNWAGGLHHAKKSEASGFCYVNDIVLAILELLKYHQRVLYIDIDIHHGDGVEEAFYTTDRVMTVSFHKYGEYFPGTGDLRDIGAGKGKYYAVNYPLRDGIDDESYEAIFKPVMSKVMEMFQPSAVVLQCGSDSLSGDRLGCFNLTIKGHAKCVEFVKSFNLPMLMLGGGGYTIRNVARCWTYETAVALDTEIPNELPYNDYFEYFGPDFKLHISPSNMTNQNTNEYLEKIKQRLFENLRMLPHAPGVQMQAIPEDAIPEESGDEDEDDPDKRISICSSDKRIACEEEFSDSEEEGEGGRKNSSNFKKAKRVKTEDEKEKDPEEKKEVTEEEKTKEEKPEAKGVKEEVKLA

IC50 [6] [µM] | IC50 [7] [µM] | IC50 [8] [µM] | IC50 [9] [µM] | IC50 [10] [µM] | IC50 [12] [µM] | IC50 [13] [µM] | IC50 [14] [µM] | IC50 [15] [µM] | Structure (SMILES) | inhibition at 10 µM [1] [%] | inhibition at 10 µM [2] [%] | inhibition at 10 µM [3] [%] | inhibition at 10 µM [4] [%] | inhibition at 10 µM [5] [%] | IC50 at 72 h [11] [µM]
– | – | – | – | – | – | – | – | – | CCCNNC(=O)CCCCCNC(=O)c1cnc(-c2c[nH]c3ccccc23)s1 | < 50 | < 20 | 36.5 | < 50 | < 50 | –
10.5 | 4.43 | 3.38 | 11.1 | 7.68 | > 5 | 1.6 | > 10 | > 10 | CCCNNC(=O)CCCCCNC(=O)c1cnc(-c2ccc(Oc3ccccc3)cc2)s1 | 68.6 | 33.8 | 82.6 | < 50 | 73.1 | 10.8
– | – | – | – | – | – | – | – | – | CCCNNC(=O)CCCCCCNC(=O)c1cnc(-c2cccc(C)c2)s1 | < 50 | < 20 | 61.7 | < 50 | < 50 | –
– | – | – | – | – | – | – | – | – | CCCNNC(=O)CCCCCCNC(=O)c1cnc(-c2ccc(OC(F)(F)F)c(OC(F)(F)F)c2)s1 | 62.7 | 20.5 | 88.8 | 54.5 | 69.5 | –
8.82 | 8.33 | 0.91 | 11 | 0.79 | – | – | – | – | Nc1ccccc1NC(=O)c1ccc(CNC(=O)OCc2cccnc2)cc1 [ENTINOSTAT] | 50.2 | 43.4 | 94.6 | 46.2 | 70.5 | 13.5
11.8 | 8.66 | 1.07 | 14.8 | 4.2 | > 5 | 1.88 | > 10 | > 10 | CCCNNC(=O)CCCCCCNC(=O)c1cnc(-c2ccc(Oc3ccccc3)cc2)s1 | 76 | 40.8 | 73.1 | 58 | < 50 | 14.1
– | – | – | – | – | – | – | – | – | CC(C)CNNC(=O)CCCCCCNC(=O)c1cnc(-c2ccc(NC(=O)OC(C)(C)C)cc2)s1 | 39.2 | 23.9 | 59 | 51 | 55.9 | –
– | – | – | – | – | – | – | – | – | CCCCCCCCCNNC(=O)CCCCCCNC(=O)c1cnc(-c2ccc(NC(=O)OC(C)(C)C)cc2)s1 | 45 | < 20 | 59.7 | < 50 | 55.2 | –
– | – | – | – | – | – | – | – | – | CCCNNC(=O)CCCCCNC(=O)c1cnc(-c2cccc3ccccc23)s1 | < 50 | < 20 | 60.6 | < 50 | 67.5 | –
14.4 | 12.7 | 0.79 | 5.31 | 8.12 | > 5 | 3.43 | > 10 | > 10 | CCCNNC(=O)CCCCCCNC(=O)c1cnc(-c2ccc(Br)cc2)s1 | 60.8 | 53 | 59.3 | 50.7 | < 50 | 13.9
– | – | – | – | – | – | – | – | – | CCCNNC(=O)c1ccc(NC(=O)c2cnc(-c3ccc(F)cc3)s2)cc1 | < 50 | < 20 | < 50 | < 50 | 69.6 | –
– | – | – | – | – | – | – | – | – | CCCNNC(=O)CCCCCNC(=O)c1cnc(-c2ccc(OC(F)(F)F)cc2)s1 | < 50 | 31.9 | 62.9 | < 50 | 69.5 | –
– | – | – | – | – | – | – | – | – | CCCNNC(=O)CCCCCNC(=O)c1cnc(-c2ccc(F)cc2F)s1 | < 50 | 21.7 | 62.9 | < 50 | 59.8 | –
– | – | – | – | – | – | – | – | – | CCCNNC(=O)CCCCCNC(=O)c1cnc(-c2ccc(Cl)cc2Cl)s1 | < 50 | < 20 | 54 | < 50 | < 50 | –
– | – | – | – | – | – | – | – | – | C=CCNNC(=O)CCCCCCNC(=O)c1cnc(-c2ccc(NC(=O)OC(C)(C)C)cc2)s1 | 64.6 | 61.2 | 58.2 | 53.5 | 63.7 | –
– | – | – | – | – | – | – | – | – | CCCNNC(=O)CCCCCNC(=O)c1cnc(-c2ccc(C(F)(F)F)cc2)s1 | 70.9 | 38.9 | < 50 | 59.6 | < 50 | –
– | – | – | – | – | – | – | – | – | CCCNNC(=O)CCCCCCNC(=O)c1cnc(-c2c[nH]c3ccccc23)s1 | 53 | 21.8 | 72.7 | < 50 | 67.7 | –
– | – | – | – | – | – | – | – | – | CCCNNC(=O)CCCCCNC(=O)c1cnc(-c2ccc3ccccc3c2)s1 | < 50 | < 20 | 58.5 | < 50 | 59.8 | –
– | – | – | – | – | – | – | – | – | CC(C)(C)OC(=O)Nc1ccc(-c2ncc(C(=O)NCCCCCCC(=O)NNCC3CC3)s2)cc1 | 57.5 | 21.4 | 85.8 | 52.1 | 71.3 | –
– | – | – | – | – | – | – | – | – | CCCNNC(=O)CCCCCCNC(=O)c1cnc(-c2ccc3c(c2)OCO3)s1 | 86.8 | 22.1 | 68.4 | 59.6 | 68.9 | –
– | – | – | – | – | – | – | – | – | CC(C)=CCCC(C)CNNC(=O)CCCCCCNC(=O)c1cnc(-c2ccc(NC(=O)OC(C)(C)C)cc2)s1 (stereo unspecified) | 57.2 | 40.5 | 58.7 | 66.8 | 53.5 | –
– | – | – | – | – | – | – | – | – | CCCNNC(=O)CCCCCNC(=O)c1cnc(-c2ccc(NC(=O)OC(C)(C)C)cc2)s1 | < 50 | 27.1 | 53.6 | < 50 | 68.9 | –
– | – | – | – | – | – | – | – | – | CCCNNC(=O)CCCCCNC(=O)c1cnc(-c2ccc(Cl)cc2)s1 | < 50 | 21.5 | 58.2 | < 50 | < 50 | –
9.82 | 5.06 | 8.15 | 9.36 | 1.46 | 1.57 | 0.42 | > 10 | > 10 | CCCNNC(=O)CCCCCCNC(=O)c1cnc(-c2ccc3[nH]ccc3c2)s1 | – | – | – | – | – | 10.1
– | – | – | – | – | – | – | – | – | CCCNNC(=O)CCCCCNC(=O)c1cnc(-c2cccc(OC)c2)s1 | < 50 | < 20 | < 50 | < 50 | < 50 | –
